These are literature values, as cited in patent US20060099690A1, “Extraction, purification and conversion of flavonoids from plant biomass” (Her Majesty the Queen in Right of Canada, as Repre, priority 2002, published 2006).

The subject of data set [1] is mouse hippocampal cell line HT-22 and rat primary neurons. The conditions noted are these: HT-22 cells and rat primary neurons.
For data set [2] the following is noted: four hours after a meal; hydrolyzed plasma; 3'- and 4'-methylquercetin.
In data set [3] the test system is serum triglycerides. The conditions noted are these: 0.5% quercetin in diet; mice or rats.
The test system of data set [4] is pain transmission. As to conditions: antinociceptive activity.

The structures appear in SMILES notation.

On to `O=c1cc(-c2ccc(O)cc2)oc2cc(O)cc(O)c12` [apigenim], for which the “protection from oxidative stress caused by glutamate” value (from here on “protection”) in data set [1] is “inactive”.

In the case of `O=c1c(O)c(-c2ccc(O)c(O)c2)oc2cc(O)cc(O)c12` [quercetin], in data set [2], the “total concentration of metabolites in the plasma” value (“total concentration” below) was 11.2 µM. Further, in data set [3], the “effect on serum triglycerides” value is given as “significant lowering”. Further, the “protection” value in data set [1] is given as “quite protective”. For the same compound, the “dose with the same effect as 2.5 mg of morphine sulfate/Kg” value in data set [4] was 50 mg/Kg body weight.

For the compound `O=c1c(O)c(-c2ccc(O)c(O)c2)oc2cc(O)ccc12` [fisetin], in data set [1], the “protection” value was “quite protective”.

Consider `C[C@@H]1O[C@@H](OC[C@H]2O[C@@H](Oc3c(-c4ccc(O)c(O)c4)oc4cc(O)cc(O)c4c3=O)[C@H](O)[C@@H](O)[C@@H]2O)[C@H](O)[C@H](O)[C@H]1O` [rutin], for which the “total concentration” value in data set [2] was 2.5 µM.

`O=c1c(O)c(-c2ccc(O)cc2)oc2cc(O)cc(O)c12` [kaempferol]: the “protection” value in data set [1] was “quite protective”.

For the compound `C[C@@H]1O[C@@H](Oc2c(-c3ccc(O)c(O)c3)oc3cc(O)cc(O)c3c2=O)[C@H](O)[C@H](O)[C@H]1O` [quercitrin, quercetin 3-rhamnoside, reference compound], the “total concentration” value in data set [2] is “failed to detect any metabolites”.

On to `O=c1c(O[C@@H]2O[C@H](CO)[C@@H](O)[C@H](O)[C@H]2O)c(-c2ccc(O)c(O)c2)oc2cc(O)cc(O)c12` [isoquercitrin, quercetin-3-O-beta glycoside], for which the “total concentration” value in data set [2] was 33.2 µM.
